Measurements from article PMC8226722, “Comparison of Solution Chemical Properties and Biological Activity of Ruthenium Complexes of Selected β-Diketone, 8-Hydroxyquinoline and Pyrithione Ligands” (Pharmaceuticals, 2021).

Key:
[1] = system: MRC-5 normal human embryonal lung fibroblast cells; assay: MTT cytotoxicity assay, MRC-5; assay type: cell-based; settings: 72 h
Method: Human colonic adenocarcinoma cell lines Colo 205 doxorubicin-sensitive (ATCC-CCL-222) and Colo 320/MDR-LRP multidrug resistant expressing ABCB1 (MDR1)-LRP (ATCC-CCL-220.1) were purchased from LGC Promochem (Teddington, UK). […] Cell lines were incubated at 37 °C, in a 5% CO2, 95% air atmosphere. The semi-adherent human colon cancer cells were detached with Trypsin-Versene (EDTA, Sigma, Steinheim, Germany) solution for 5 min at 37 °C. MRC-5 human embryonal lung fibroblast cell lines (ATCC CCL-171) were purchased from LGC Promochem. […] The cell lines were incubated at 37 °C, in a 5% CO2, 95% air atmosphere.
In the study MRC-5 non-cancerous human embryonic lung fibroblast and human colonic adenocarcinoma cell lines (doxorubicin-sensitive Colo 205 and multidrug resistant Colo 320 colonic adenocarcinoma cells) were used to determine the effect of compounds on cell growth. The effects of increasing concentrations of compounds on cell growth were tested in 96-well flat-bottomed microtiter plates. The stock solutions of the compounds were prepared in DMSO, and in the final samples the DMSO content was always lower than 1%. The compounds were diluted in a volume of 100 μL of medium.
In case of the colonic adenocarcinoma cells, the two-fold serial dilutions of compounds were prepared in 100 μL of RPMI 1640, horizontally. The semi-adherent colonic adenocarcinoma cells were treated with Trypsin-Versene (EDTA) solution. They were adjusted to a density of 1 × 10^4 cells in 100 μL of RPMI 1640 medium, and were added to each well, with the exception of the medium control wells. The final volume of the wells containing compounds and cells was 200 μL.
The culture plates were incubated at 37 °C for 72 h; at the end of the incubation period, 20 μL of MTT (Sigma) solution (from a stock solution of 5 mg/mL) were added to each well. After incubation at 37 °C for 4 h, 100 μL of sodium dodecyl sulfate (SDS) (Sigma) solution (10% in 0.01 M HCl) were added to each well and the plates were further incubated at 37 °C overnight. Cell growth was determined by measuring the optical density (OD) at 540/630 nm with Multiscan EX ELISA reader (Thermo Labsystems, Cheshire, WA, USA). […] Curves were fitted by Prism software (GraphPad Software Inc., San Diego, CA, USA) using the sigmoidal dose-response model (comparing variable and fixed slopes). The IC50 values were obtained from at least 3 independent experiments.

[2] = biological target: ABCB1 (P-glycoprotein) efflux pump (Homo sapiens, UniProt P08183); assay: Rhodamine 123 uptake/retention fluorescence assay (flow cytometry) in Colo 320 cells
Chain of ABCB1 (P-glycoprotein) efflux pump (P08183 whole entry): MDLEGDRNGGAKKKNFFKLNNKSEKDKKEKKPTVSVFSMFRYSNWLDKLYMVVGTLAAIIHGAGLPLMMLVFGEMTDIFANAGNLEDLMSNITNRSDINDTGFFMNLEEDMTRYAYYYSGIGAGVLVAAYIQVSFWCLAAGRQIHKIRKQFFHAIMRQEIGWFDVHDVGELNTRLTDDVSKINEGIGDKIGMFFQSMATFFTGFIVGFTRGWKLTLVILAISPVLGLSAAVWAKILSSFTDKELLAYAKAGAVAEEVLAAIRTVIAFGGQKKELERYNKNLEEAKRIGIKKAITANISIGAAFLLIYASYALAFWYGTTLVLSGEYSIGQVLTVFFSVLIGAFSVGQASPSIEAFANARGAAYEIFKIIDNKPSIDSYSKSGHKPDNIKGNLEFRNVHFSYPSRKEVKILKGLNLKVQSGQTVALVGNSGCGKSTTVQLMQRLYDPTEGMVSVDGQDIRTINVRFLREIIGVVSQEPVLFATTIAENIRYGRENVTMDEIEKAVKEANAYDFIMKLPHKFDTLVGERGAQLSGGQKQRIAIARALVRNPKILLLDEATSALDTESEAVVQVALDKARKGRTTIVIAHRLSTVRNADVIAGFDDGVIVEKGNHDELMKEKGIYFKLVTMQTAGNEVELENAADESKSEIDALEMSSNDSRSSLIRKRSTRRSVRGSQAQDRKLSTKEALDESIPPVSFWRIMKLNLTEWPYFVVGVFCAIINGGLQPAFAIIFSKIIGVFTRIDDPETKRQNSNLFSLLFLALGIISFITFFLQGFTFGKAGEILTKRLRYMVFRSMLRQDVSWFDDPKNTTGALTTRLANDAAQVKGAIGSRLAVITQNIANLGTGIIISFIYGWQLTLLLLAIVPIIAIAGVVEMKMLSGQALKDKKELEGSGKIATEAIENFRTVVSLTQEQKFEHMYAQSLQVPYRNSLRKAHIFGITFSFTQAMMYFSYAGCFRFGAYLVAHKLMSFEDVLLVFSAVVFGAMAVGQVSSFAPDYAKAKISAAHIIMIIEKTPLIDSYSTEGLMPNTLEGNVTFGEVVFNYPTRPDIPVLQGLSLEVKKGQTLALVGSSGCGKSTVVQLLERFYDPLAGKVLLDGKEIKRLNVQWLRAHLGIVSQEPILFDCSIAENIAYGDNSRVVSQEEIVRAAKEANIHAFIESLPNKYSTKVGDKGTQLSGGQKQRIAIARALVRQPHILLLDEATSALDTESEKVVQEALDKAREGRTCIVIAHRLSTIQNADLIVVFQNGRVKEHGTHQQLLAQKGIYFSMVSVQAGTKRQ
Method: It is important to note, that the resistance of this cell line is primarily mediated by the overexpression of the ABC-transporter P-glycoprotein, which pumps out xenobiotics from the cytosol. […] This dye is membrane-permeable and is rapidly taken up by the cells; therefore, it can be effectively used for the screening of efflux pump inhibiting compounds. […] Then the fluorescence accumulation ratios (FAR) were calculated (Figure 1) according to the equation given in the Materials and Methods section. Verapamil was used as a reference inhibitor compound.
This fluorescence-based detection system uses verapamil (a first-generation, competitive EPI) as reference inhibitor. […] The tested compounds were added at different concentrations (2 and 20 µM; from 1 and 10 mM stock solutions, respectively) and the samples were incubated for 10 min at room temperature.
The parameters evaluated from flow cytometric experiments are forward scatter count (FSC, provides information about cell size); side scatter count (SSC, proportional to cell granularity or internal complexity); mean fluorescence of the cells (FL-1) and the computed FAR and FAR quotients (Table S1).

[3] = biological target: T1, Human serum albumin (HSA) (Homo sapiens, UniProt P02768); assay: HSA binding by spectrofluorometry (Trp-214 quenching, site marker displacement); settings: pH 7.40 PBS’, 25 °C; for logKWF’ (warfarin displacement): site I marker; for logKDG’ (dansyl glycine displacement): site II marker
T1 construct: purchased Sigma-Aldrich A8763
T1 sequence (P02768 25-609): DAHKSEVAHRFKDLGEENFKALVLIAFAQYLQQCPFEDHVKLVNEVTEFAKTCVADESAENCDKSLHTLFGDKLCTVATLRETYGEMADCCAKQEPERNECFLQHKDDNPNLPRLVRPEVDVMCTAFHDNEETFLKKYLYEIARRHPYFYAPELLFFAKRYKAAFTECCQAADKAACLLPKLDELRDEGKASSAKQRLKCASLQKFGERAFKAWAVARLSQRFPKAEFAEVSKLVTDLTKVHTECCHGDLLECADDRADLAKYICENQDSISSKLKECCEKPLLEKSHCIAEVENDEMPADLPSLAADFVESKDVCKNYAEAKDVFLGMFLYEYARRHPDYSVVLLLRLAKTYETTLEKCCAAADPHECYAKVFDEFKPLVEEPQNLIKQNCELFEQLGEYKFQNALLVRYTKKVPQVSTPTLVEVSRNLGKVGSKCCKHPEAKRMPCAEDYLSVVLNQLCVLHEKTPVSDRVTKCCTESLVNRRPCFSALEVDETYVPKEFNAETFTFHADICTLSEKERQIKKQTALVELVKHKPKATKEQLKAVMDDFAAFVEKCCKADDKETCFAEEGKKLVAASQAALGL
Method: Steady-state spectrofluorometric measurements were also performed to assay the binding interactions at the binding pockets of HSA located in the IIA and IIIA subdomains. His residues are found nearby at both binding sites, and covalent binding is possible here. Trp-214 quenching and site marker displacement experiments were conducted as reported in our former works. Warfarin (WF) was applied as site I marker and dansyl glycine (DG) was used for site II. Representative emission spectra for Trp-214 quenching in case of 1 are shown in Figure 8a, and changes in the intensities at the emission maximum are compared for 1–4 in Figure 8b. Based on the spectral changes conditional binding constants were computed for both of the quenching and site marker displacement assays (Table 5).
Complex 2 is hardly bound at site I, while binding of 3 and 1 is considered as a strong interaction here.
Fluorescence studies were performed using a Fluoromax (Horiba Jobin Yvon, Kyoto, Japan) fluorometer in 1 × 1 cm quartz cells. All samples contained 1 μM HSA and various HSA-to-metal complex ratios (up to complex:HSA = 1:40) were used. Site marker displacement experiments were also carried out, and in the samples the HSA-to-site marker (WF or DG) ratio was 1:1 and the concentration of the complex compounds was varied. For the Trp quenching, the WF and DG displacement experiments λEX = 295, 310 and 335 nm was applied and emission spectra were recorded spectra in the wavelength range 310–450, 320–500 and 420–600 nm, respectively. Computer program HypSpec was utilized for calculation of binding constants (K’) for HSA–metal complex adducts similar to the approach described in our former works. Calculations were always based on data obtained from at least two independent measurements.

[4] = UV-vis interaction with 1-methylimidazole, monodentate binding model of HSA; settings: pH 7.4, 102 mM chloride
Method: In our previous work, the fast interaction of complexes 7 and 8 with thiol-containing low molecular mass endogenous compounds Cys, N-acetylcysteine and glutathione was found on the basis of a mass spectrometry study. The donor atoms generally coordinate at the site of the monodentate co-ligand, however, they can also displace the weakly bound bidentate ligand as well. Herein, interaction of the complexes 1–4 towards 1-methylimidazole (mim), a monodentate binding model of HSA was measured by UV-vis (Figure 7d–f).
The reactions in all cases were very fast (except complex 2 and 4), and the observed spectral changes were similar to those obtained with HSA (Figure 7a–c). There was no indication for the replacement of the bidentate ligand by 1-methylimidazole. Considering that the latter ligand binds at the coordination site of the co-ligand, maximum one complex is able to be bound to 1-methylimidazole. However, the constant spectra upon addition of 1-methylimidazole to the complex 4 could only be reached at high excess of 1-methylimidazole due to its lower tendency to interact with this model (and with HSA as well). Based on these spectral changes, conditional binding constants were calculated for the formation of the 1-methylimidazole adducts. […] The protecting role of PTA in ligand-exchange processes for the complex pair 7 and 8 was also reported regarding their interaction with thiols or protein NCp7 [46, 47].

| SMILES | IC50 [1] | FAR fluorescence accumulation ratio ([2]; Colo 320, 2 μM) | FAR quotient (FAR related to that of 20 μM verapamil) ([2]; Colo 320, 2 μM) | FSC forward scatter count ([2]; Colo 320, 2 μM) | SSC side scatter count ([2]; Colo 320, 2 μM) | FAR fluorescence accumulation ratio ([2]; Colo 320, 20 μM) | FAR quotient (FAR related to that of 20 μM verapamil) ([2]; Colo 320, 20 μM) | FSC forward scatter count ([2]; Colo 320, 20 μM) | SSC side scatter count ([2]; Colo 320, 20 μM) | FL-1 mean fluorescence of the cells ([2]; Colo 320, rhodamine 123, 2 μM) | FL-1 mean fluorescence of the cells ([2]; Colo 320, rhodamine 123, 20 μM) | logKQ’ (Trp-214 quenching) ([3]; batch, 48 h equilibration) | logKQ’ (Trp-214 quenching) ([3]; titration, site I) | LogK’ conditional binding constant of 1-methylimidazole adduct [4] | logKWF’ (warfarin displacement) [3] | logKDG’ (dansyl glycine displacement) [3] |
| --- | --- | --- | --- | --- | --- | --- | --- | --- | --- | --- | --- | --- | --- | --- | --- | --- |
| Cc1ccc(C(C)C)cc1.O=C(C=C([O-])C(F)(F)F)c1ccc(Cl)cc1.[Cl-].[Ru+2] [complex 7] | 26.5 ± 3.2 µM | 1.11 | 23.1% | 1988 | 946 | 1.31 | 27.3% | 1909 | 900 | 5.86 | 6.94 | – | – | – | – | – |
| C1N2CN3CN1CP(C2)C3.Cc1ccc(C(C)C)cc1.F[P-](F)(F)(F)(F)F.[O-]n1ccc2ccccc2c1=S.[Ru+2] [complex 4] | – | 0.82 | 17.0% | 2014 | 959 | 1.70 | 35.2% | 1977 | 973 | 4.33 | 8.95 | 5.39 ± 0.03 | 4.46 ± 0.03 | 3.64 ± 0.02 | – | – |
| C1N2CN3CN1CP(C2)C3.Cc1ccc(C(C)C)cc1.F[P-](F)(F)(F)(F)F.O=C(C=C([O-])C(F)(F)F)c1ccc(Cl)cc1.[Ru+2] [complex 8] | 17.6 ± 1.5 µM | 0.66 | 13.8% | 1925 | 877 | 1.08 | 22.4% | 1950 | 917 | 3.51 | 5.68 | – | – | – | – | – |
| Cc1ccc(C(C)C)cc1.[Cl-].[O-]n1ccccc1=S.[Ru+2] [complex 1] | 2.17 ± 0.22 µM | – | – | – | – | – | – | – | – | – | – | – | 5.81 ± 0.03 | 4.16 ± 0.45 | 6.16 ± 0.03 | 5.80 ± 0.03 |
| C1N2CN3CN1CP(C2)C3.Cc1ccc(C(C)C)cc1.F[P-](F)(F)(F)(F)F.[O-]n1ccccc1=S.[Ru+2] [complex 2] | > 100 µM | 1.02 | 21.3% | 2034 | 962 | 1.02 | 21.3% | 2071 | 1024 | 5.4 | 5.41 | – | <4 | – | – | – |
| Cc1ccc(C(C)C)cc1.[Cl-].[O-]n1ccc2ccccc2c1=S.[Ru+2] [complex 3] | 7.6 ± 1.6 µM | – | – | – | – | – | – | – | – | – | – | – | 6.18 ± 0.03 | 4.18 ± 0.27 | 5.98 ± 0.03 | 5.61 ± 0.03 |
